Columns and labels:
[1] = system: mouse astrogial cells; settings: Bishop et al., Nutrition Reviews 56:287-293 (1998); cited from earlier work
[2] = system: strains NRRL B-30035, NRRL B-30037N, and NRRL B-30036; assay: Antibiotic resistance by minimum inhibitory concentration (MIC), commercial "Pasco" system; assay type: cell-based; settings: strains NRRL B-30035 (ADM 291-19), NRRL B-30037N (ADM 62A-12A), NRRL B-30036 (ADM 266-13B), based on physiologically attainable concentrations of antibiotic
Description: (6) Antibiotic resistance—sensitive to amikacin, augmentin (amoxicillin plus clavulonic acid), ampicillin, cefazolin, cefoxitin, ceftazidime, ceftiofur, cephalothin, enrofloxacin, florfenicol, gentamicin, imipenem, kanamycin, sarafloxicin, tetracycline, ticarcillin, and tilmicosin, but resistant to tribrissen ([…] plus sulfamethozole), as determined by minimum inhibitory concentration (MIC), based on physiologically attainable concentrations of antibiotic, employing the commercial “Pasco” system; and […]

O=C(O)c1cc(C(=O)O)c2c(n1)C(=O)C(=O)c1cc(C(=O)O)[nH]c1-2 [PQQ, 2,7,9-tricarboxy-1H-pyrrolo[2,3-f]quino-line-4,5-dione]
nerve growth factor synthesis [1]: increases

NCC[C@H](O)C(=O)N[C@@H]1C[C@H](N)[C@@H](O[C@H]2O[C@H](CN)[C@@H](O)[C@H](O)[C@H]2O)[C@H](O)[C@H]1O[C@H]1O[C@H](CO)[C@@H](O)[C@H](N)[C@H]1O [amikacin]
Antibiotic resistance (sensitive / resistant) as determined by minimum inhibitory concentration (MIC) [2]: sensitive

CC1(C)S[C@@H]2[C@H](NC(=O)[C@H](N)c3ccccc3)C(=O)N2[C@H]1C(=O)O [ampicillin]
Antibiotic resistance (sensitive / resistant) as determined by minimum inhibitory concentration (MIC) [2]: sensitive

Cc1nnc(SCC2=C(C(=O)O)N3C(=O)[C@@H](NC(=O)Cn4cnnn4)[C@H]3SC2)s1 [cefazolin]
Antibiotic resistance (sensitive / resistant) as determined by minimum inhibitory concentration (MIC) [2]: sensitive

CO[C@@]1(NC(=O)Cc2cccs2)C(=O)N2C(C(=O)O)=C(COC(N)=O)CS[C@@H]21 [cefoxitin]
Antibiotic resistance (sensitive / resistant) as determined by minimum inhibitory concentration (MIC) [2]: sensitive

CC(C)(O/N=C(\C(=O)N[C@@H]1C(=O)N2C(C(=O)[O-])=C(C[n+]3ccccc3)CS[C@H]12)c1csc(N)n1)C(=O)O [ceftazidime]
Antibiotic resistance (sensitive / resistant) as determined by minimum inhibitory concentration (MIC) [2]: sensitive

CO/N=C(\C(=O)N[C@@H]1C(=O)N2C(C(=O)O)=C(CSC(=O)c3ccco3)CS[C@H]12)c1csc(N)n1 [ceftiofur]
Antibiotic resistance (sensitive / resistant) as determined by minimum inhibitory concentration (MIC) [2]: sensitive

CC(=O)OCC1=C(C(=O)O)N2C(=O)[C@@H](NC(=O)Cc3cccs3)[C@H]2SC1 [cephalothin]
Antibiotic resistance (sensitive / resistant) as determined by minimum inhibitory concentration (MIC) [2]: sensitive

CCN1CCN(c2cc3c(cc2F)c(=O)c(C(=O)O)cn3C2CC2)CC1 [enrofloxacin]
Antibiotic resistance (sensitive / resistant) as determined by minimum inhibitory concentration (MIC) [2]: sensitive

CS(=O)(=O)c1ccc([C@@H](O)[C@@H](CF)NC(=O)C(Cl)Cl)cc1 [florfenicol]
Antibiotic resistance (sensitive / resistant) as determined by minimum inhibitory concentration (MIC) [2]: sensitive

O=C(O)c1cn(-c2ccc(F)cc2)c2cc(N3CCNCC3)c(F)cc2c1=O [sarafloxicin]
Antibiotic resistance (sensitive / resistant) as determined by minimum inhibitory concentration (MIC) [2]: sensitive

CC1(C)S[C@@H]2[C@H](NC(=O)[C@H](C(=O)O)c3ccsc3)C(=O)N2[C@H]1C(=O)O [ticarcillin]
Antibiotic resistance (sensitive / resistant) as determined by minimum inhibitory concentration (MIC) [2]: sensitive

CC[C@H]1OC(=O)C[C@@H](O)[C@H](C)[C@@H](O[C@@H]2O[C@H](C)[C@@H](O)[C@H](N(C)C)[C@H]2O)[C@@H](CCN2C[C@H](C)C[C@H](C)C2)C[C@@H](C)C(=O)/C=C/C(C)=C/[C@@H]1CO[C@@H]1O[C@H](C)[C@@H](O)[C@@H](OC)[C@H]1OC [tilmicosin]
Antibiotic resistance (sensitive / resistant) as determined by minimum inhibitory concentration (MIC) [2]: sensitive

gentamicin
Antibiotic resistance (sensitive / resistant) as determined by minimum inhibitory concentration (MIC) [2]: sensitive
